This passage reports Ki results from ChEMBL document CHEMBL4177580, “New 5-HT1A, 5HT2A and 5HT2C receptor ligands containing a picolinic nucleus: Synthesis, in vitro and in vivo pharmacological evaluation” (Bioorg Med Chem, 2017).

The target of experiment [1] is 5-hydroxytryptamine receptor 2A (Rattus norvegicus, UniProt P14842). As to the kind of experiment: Displacement of [3H]ketanserin from serotonin 5-HT2A receptor in Sprague-Dawley rat brain cortex homogenates incubated for 15 mins by liquid scintillation spectrometry. On the technique in general: Displacement assays read how much labelled ligand stays bound in the presence of the test substance.
Sequence of 5-hydroxytryptamine receptor 2A (P14842 whole entry): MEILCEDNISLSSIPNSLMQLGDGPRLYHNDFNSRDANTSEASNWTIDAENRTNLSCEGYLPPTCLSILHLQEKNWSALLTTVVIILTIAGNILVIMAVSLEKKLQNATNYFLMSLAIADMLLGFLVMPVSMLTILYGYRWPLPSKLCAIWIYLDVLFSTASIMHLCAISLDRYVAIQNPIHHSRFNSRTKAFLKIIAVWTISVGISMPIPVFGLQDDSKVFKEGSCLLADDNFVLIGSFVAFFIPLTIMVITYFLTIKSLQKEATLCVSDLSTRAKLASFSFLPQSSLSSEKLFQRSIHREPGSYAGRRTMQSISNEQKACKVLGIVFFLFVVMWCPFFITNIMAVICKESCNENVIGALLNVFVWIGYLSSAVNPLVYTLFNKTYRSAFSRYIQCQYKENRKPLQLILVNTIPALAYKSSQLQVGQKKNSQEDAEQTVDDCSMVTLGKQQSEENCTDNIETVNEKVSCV

In experiment [2] the target is T1, 5-hydroxytryptamine receptor 1A (Rattus norvegicus, UniProt P19327).
T1 sequence (P19327 whole entry): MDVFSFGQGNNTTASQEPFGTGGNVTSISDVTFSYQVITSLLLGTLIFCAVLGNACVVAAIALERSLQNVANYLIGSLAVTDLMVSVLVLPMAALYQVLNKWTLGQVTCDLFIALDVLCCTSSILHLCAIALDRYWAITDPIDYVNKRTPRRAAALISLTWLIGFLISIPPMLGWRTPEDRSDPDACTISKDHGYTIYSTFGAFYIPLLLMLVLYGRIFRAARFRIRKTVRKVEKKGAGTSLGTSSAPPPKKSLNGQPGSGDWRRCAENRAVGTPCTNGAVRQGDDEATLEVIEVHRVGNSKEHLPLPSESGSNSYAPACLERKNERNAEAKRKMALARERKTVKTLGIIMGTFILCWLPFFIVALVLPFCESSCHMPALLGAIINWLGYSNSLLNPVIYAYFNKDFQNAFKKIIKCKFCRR
As to the kind of experiment: Displacement of [3H]-8-OH-DPAT from serotonin 5-HT1A receptor in Sprague-Dawley rat brain cortex homogenates incubated for 30 mins by liquid scintillation spectrometry.

For experiment [3], the target named is T2, 5-hydroxytryptamine receptor 2C (Rattus norvegicus, UniProt P08909).
T2 sequence (P08909 whole entry): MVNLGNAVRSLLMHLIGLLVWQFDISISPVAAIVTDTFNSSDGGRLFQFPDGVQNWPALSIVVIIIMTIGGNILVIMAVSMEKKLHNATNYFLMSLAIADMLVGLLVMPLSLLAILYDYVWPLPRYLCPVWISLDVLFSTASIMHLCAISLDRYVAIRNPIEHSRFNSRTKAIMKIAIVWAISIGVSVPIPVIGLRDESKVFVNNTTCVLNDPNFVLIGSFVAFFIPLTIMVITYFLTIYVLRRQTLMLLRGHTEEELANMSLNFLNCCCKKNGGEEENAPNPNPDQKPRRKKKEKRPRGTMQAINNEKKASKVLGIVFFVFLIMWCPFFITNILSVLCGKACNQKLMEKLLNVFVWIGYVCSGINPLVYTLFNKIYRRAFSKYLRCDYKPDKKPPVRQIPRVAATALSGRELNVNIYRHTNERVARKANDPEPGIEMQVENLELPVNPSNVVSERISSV
The experiment in a line: Displacement of [3H]mesulergine from serotonin 5-HT2C receptor in Sprague-Dawley rat brain cortex homogenates incubated for 15 mins by liquid scintillation spectrometry.

One may read the Ki as the equilibrium dissociation constant of an inhibitor or competing ligand from its target. A lower Ki goes with higher affinity. On to `O=C(NCCN1CCN(c2ccc(F)cc2)CC1)c1ccccn1`, for which the inhibitory constant (Ki) in experiment [1] turned out to be 241 nM; in experiment [2], 82 nM; in experiment [3] it was 79.4 nM.

For the compound `O=C(NCCCN1CCN(c2ccc(F)cc2)CC1)c1ccccn1`, the Ki is 161 nM in experiment [1], more than 10000 nM in experiment [2] and 11.7 nM in experiment [3].

As for `O=C(NCCCN1CCN(c2ccccn2)CC1)c1ccccn1`, the Ki was more than 10000 nM in experiment [1], 495 nM in experiment [2] and 140 nM in experiment [3].

Regarding `Cc1cccc(N2CCN(CCCNC(=O)c3ccccn3)CC2)c1C`, the inhibition constant Ki in experiment [1] was more than 10000 nM; in experiment [2], 88.7 nM; in experiment [3], 105 nM.

On to `O=C(NCCN1CCN(c2ccccn2)CC1)c1ccccn1`, for which the inhibitory constant (Ki) in experiment [1] is more than 10000 nM; in experiment [2], 32.7 nM; in experiment [3], more than 10000 nM.

As to `O=C(NCCN1CCN(Cc2ccc3c(c2)OCO3)CC1)c1ccccn1`, the inhibition constant (Ki) is more than 10000 nM in experiment [1], more than 10000 nM in experiment [2] and 61.2 nM in experiment [3].

On to `O=C(NCCCN1CCN(c2cccc(C(F)(F)F)c2)CC1)c1ccccn1`, for which the Ki in experiment [1] is more than 10000 nM; in experiment [2], 17.9 nM; in experiment [3], more than 10000 nM.

`O=C(NCCN1CCN(C(c2ccc(F)cc2)c2ccc(F)cc2)CC1)c1ccccn1` returned an inhibitory constant (Ki) in experiment [2] of more than 10000 nM.

Take `O=C(NCCCN1CCN(c2ccc(Cl)cc2)CC1)c1ccccn1`: the Ki in experiment [1] is 371 nM; in experiment [2], 68 nM; in experiment [3], 39.7 nM.

Consider `O=C(NCCCN1CCN(c2ccccc2Cl)CC1)c1ccccn1`, for which the Ki came to 763 nM in experiment [1], 71.6 nM in experiment [2] and 1050 nM in experiment [3].

For `O=C(NCCN1CCN(c2cccc(Cl)c2)CC1)c1ccccn1`, the results for the inhibitory constant (Ki) in experiment [1], in experiment [2] and in experiment [3] were 309 nM, 267 nM and 90.9 nM, respectively.

Regarding `O=C(NCCN1CCN(C(=O)c2ccco2)CC1)c1ccccn1`, the inhibition constant (Ki) in experiment [1], in experiment [2] and in experiment [3] was more than 10000 nM in each case.

For the compound `O=C(NCCCN1CCN(C(c2ccccc2)c2ccc(Cl)cc2)CC1)c1ccccn1` (stereo not given), the figures for the Ki in experiment [1], in experiment [2] and in experiment [3] were 725 nM, 443 nM and more than 10000 nM, respectively.

As for `O=C(NCCCN1CCN(c2ccccc2F)CC1)c1ccccn1`, the results for the inhibition constant Ki in experiment [1], in experiment [2] and in experiment [3] were 327 nM, 230 nM and more than 10000 nM, respectively.

Consider `O=C(NCCN1CCN(c2cccc3ccccc23)CC1)c1ccccn1`, for which the values for the Ki in experiment [1], in experiment [2] and in experiment [3] were 91.1 nM, 20.8 nM and 116 nM, respectively.

`O=C(NCCN1CCN(c2ccccc2Cl)CC1)c1ccccn1`: the values for the inhibition constant Ki in experiment [1], in experiment [2] and in experiment [3] were more than 10000 nM, 412 nM and 268 nM, respectively.

Turning to `CCOc1ccccc1N1CCN(CCNC(=O)c2ccccn2)CC1`, the figures for the inhibitory constant (Ki) in experiment [1], in experiment [2] and in experiment [3] were more than 10000 nM, 55.4 nM and more than 10000 nM, respectively.

Consider `N#Cc1ccccc1N1CCN(CCNC(=O)c2ccccn2)CC1`, for which the results for the inhibition constant (Ki) in experiment [1], in experiment [2] and in experiment [3] were 616 nM, 74.8 nM and more than 10000 nM, respectively.

In the case of `O=C(NCCN1CCN(c2ccccc2F)CC1)c1ccccn1`, the figures for the Ki in experiment [1], in experiment [2] and in experiment [3] were more than 10000 nM, 158 nM and more than 10000 nM, respectively.

With `N#Cc1ccccc1N1CCN(CCCNC(=O)c2ccccn2)CC1`, the Ki in experiment [1] is more than 10000 nM; in experiment [2] it was 108 nM; in experiment [3], 128 nM.

`Cc1cccc(N2CCN(CCNC(=O)c3ccccn3)CC2)c1C`: the Ki was more than 10000 nM in experiment [1], 215 nM in experiment [2] and more than 10000 nM in experiment [3].

For the compound `COc1ccc(N2CCN(CCCNC(=O)c3ccccn3)CC2)cc1`, the Ki in experiment [1], in experiment [2] and in experiment [3] was more than 10000 nM each time.

For the compound `O=C(NCCCN1CCN(c2cccc3ccccc23)CC1)c1ccccn1`, the inhibitory constant (Ki) in experiment [1] is 213 nM; in experiment [2] it was 44.1 nM; in experiment [3], more than 10000 nM.

`O=C(NCCN1CCN(C(c2ccccc2)c2ccc(Cl)cc2)CC1)c1ccccn1` (stereo not given): the Ki stood at 504 nM in experiment [1], 540 nM in experiment [2] and 49.8 nM in experiment [3].
